Experimental data from US5989846A, “Assays to identify inducers of plant defense resistance” (Rutgers, The State University of New Jersey, priority 1995, dated 1999).

How the values were obtained:
[1] = molecular target: cucumber salicylic acid binding protein; experiment: Salicylic acid binding activity from cucumber; settings: cucumber derived salicylic acid binding protein
Description: Several, of the MAbs that bind to the tobacco 57 kDa protein and 280 kDa complex also recognize a 57 kDa protein in fresh homogenates from cucumbers. The salicylic acid binding activity from cucumber has similar affinity (Kd) and specificity as the tobacco salicylic acid binding protein. Like the tobacco salicylic acid binding protein, the cucumber salicylic acid binding protein also has a large native molecular weight (approximately 200 kDa). Thus, it appears that the cucumber salicylic acid binding protein is also a complex composed of multiple subunits at least one of which is probably the 57 kDa protein recognized by the MAbs made against the tobacco salicylic acid binding protein. It should be noted, however, that there may be some minor variation in molecular weight and Kd for salicylic acid binding protein from one plant species to the next. For example, cucumber derived salicylic acid binding protein appears to have an apparent average native molecular weight of about 200 kDa and a Kd of about 30±5 μM.

[2] = molecular target: T1, catalase activity of SABP (Nicotiana tabacum, UniProt P49319); experiment: Catalase activity of highly purified SABP (luminol method); type: biochemical, tobacco; settings: 0.05 h; 1 mM SA or analogue, 1 mM H2O2, 500 ng highly purified SABP
T1 sequence (P49319 1-492): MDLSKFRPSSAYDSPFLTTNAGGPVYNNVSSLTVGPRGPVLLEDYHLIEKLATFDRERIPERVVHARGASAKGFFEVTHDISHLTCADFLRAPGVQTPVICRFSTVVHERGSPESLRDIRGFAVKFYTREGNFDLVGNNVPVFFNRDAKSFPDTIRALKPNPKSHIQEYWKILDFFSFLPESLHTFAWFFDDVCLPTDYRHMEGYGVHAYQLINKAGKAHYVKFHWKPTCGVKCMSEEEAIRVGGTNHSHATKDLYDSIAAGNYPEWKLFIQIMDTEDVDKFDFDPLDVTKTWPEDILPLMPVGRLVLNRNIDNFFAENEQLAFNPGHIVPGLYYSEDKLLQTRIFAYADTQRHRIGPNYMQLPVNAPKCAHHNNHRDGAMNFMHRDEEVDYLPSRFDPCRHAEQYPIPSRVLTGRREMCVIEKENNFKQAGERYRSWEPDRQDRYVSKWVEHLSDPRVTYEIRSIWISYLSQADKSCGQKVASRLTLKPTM
In short: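 H2O2 remaining was sampled every 30 s from purified SABP reactions, with or without SA or analogues. Measured by luminol chemiluminescence triggered by 0.5 mM K3Fe(CN)6 in 0.2N NH4OH, pH 9.5, and quantified against an H2O2 standard curve; first-order rate constants calculated.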

[3] = test system: catalase; experiment: Catalase activity of crude extracts; type: biochemical
Description: In the presence of SA, the catalase activity of the highly purified SABP was inhibited by 80% (Table 6). A similar level of inhibition of catalase activity by SA (^- 70%) was also observed with crude extracts; inhibition appeared to be reversible since the catalase activity could be largely recovered by extensive dialysis. To assess the functional relevance of catalase inhibition by SA, several SA analogues, with or without biological activity in inducing plant PR genes and disease resistance, were compared for their ability to inhibit the catalase activity of SABP (Table 6).

[4] = test system: plant processes; parameters: key: +: induces or enhances; -: reduces or inhibits; settings: addition of salicylic acid to plants; cited from earlier work
[5] = test system: resistance or PR gene expression; parameters: key: ++: indicates a high level of biological activity; +: indicates a lower level of biological activity; ±: indicates low, but detectable biological activity in some assays; -: indicates no biological activity; settings: Table 3; values reported in literature; cited from earlier work

**Q.** Which results are given for `O=C(O)c1ccccc1O` [salicylic acid, 2-hydroxybenzoic acid]?
**A.** Kd [1]: ~30 µM; inhibition at 1000 µM [2]: 80%; Inhibition of catalase activity ([3]; crude extracts): ~70%; Reversibility of catalase inhibition ([3]; extensive dialysis): reversible; Effect on Adventitious root initiation [4]: +; Effect on Alternative pathway [4]: +; Effect on Disease resistance [4]: +; Effect on Ethylene biosynthesis [4]: -; Effect on Flowering [4]: +; Effect on Fruit yield [4]: +; Effect on Gene regulation [4]: +; Effect on Glycolysis [4]: +; Effect on Growth inhibition [4]: +; Effect on Krebs cycle [4]: +; Effect on Leaf abscission [4]: -; Effect on Photonastic leaflet movement [4]: +; Effect on Potassium ion absorption [4]: -; Effect on Scotonastic leaflet movement [4]: -; Effect on Seed germination [4]: - and +; Effect on Somatic embryogenesis [4]: -; Effect on Stomatal closure [4]: -; Effect on Thermogenesis [4]: +; Effect on Transpiration [4]: -; Effect on Wound response [4]: -; Biological activity [5]: ++
